Test results reported in ChEMBL document CHEMBL1127202, “Endothelin receptor ligands. replacement net approach to SAR determination of potent hexapeptides” (Bioorg Med Chem Lett, 1993).
Residues, ends and D or L forms follow the SMILES beside them.

What was measured:
[1] = molecular target: T1, Endothelin-1 receptor (Mus musculus, UniProt Q61614); test: Inhibition of [125I]ET1 binding to Endothelin A receptor of murine 3T3 cells; format: cell-based, NIH3T3
T1 sequence (Q61614 whole entry): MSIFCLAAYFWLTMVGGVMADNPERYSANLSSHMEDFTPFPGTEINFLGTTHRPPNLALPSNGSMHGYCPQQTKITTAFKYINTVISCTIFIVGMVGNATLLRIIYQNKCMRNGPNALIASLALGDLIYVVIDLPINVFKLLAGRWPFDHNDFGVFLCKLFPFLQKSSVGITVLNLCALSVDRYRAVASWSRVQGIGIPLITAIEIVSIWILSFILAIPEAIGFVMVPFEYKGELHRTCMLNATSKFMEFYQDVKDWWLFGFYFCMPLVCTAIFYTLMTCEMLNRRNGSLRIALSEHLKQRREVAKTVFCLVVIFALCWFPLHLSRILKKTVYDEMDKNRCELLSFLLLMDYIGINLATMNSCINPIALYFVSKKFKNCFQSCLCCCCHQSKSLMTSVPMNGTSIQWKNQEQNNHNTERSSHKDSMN

[2] = molecular target: T2, Endothelin-1 receptor (Homo sapiens, UniProt P25101); test: The inhibitory constant was evaluated against Endothelin A receptor
T2 sequence (P25101 whole entry): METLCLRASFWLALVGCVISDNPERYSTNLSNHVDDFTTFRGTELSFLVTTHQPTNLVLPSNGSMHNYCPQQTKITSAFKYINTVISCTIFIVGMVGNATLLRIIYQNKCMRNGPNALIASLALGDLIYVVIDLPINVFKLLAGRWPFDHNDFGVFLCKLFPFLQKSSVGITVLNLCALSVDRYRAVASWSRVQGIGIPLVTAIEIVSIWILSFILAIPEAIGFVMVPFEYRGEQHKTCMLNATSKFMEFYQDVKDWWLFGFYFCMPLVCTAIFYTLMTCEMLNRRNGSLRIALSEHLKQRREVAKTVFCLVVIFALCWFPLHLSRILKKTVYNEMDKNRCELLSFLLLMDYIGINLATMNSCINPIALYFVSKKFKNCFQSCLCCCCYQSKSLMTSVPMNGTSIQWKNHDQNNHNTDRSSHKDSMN

[3] = molecular target: T1, Endothelin-1 receptor; test: The compound was tested for the binding affinity against eEndothelin A receptor in murine 3T3 cells using [125I]ET1 as a radioligand; format: cell-based, NIH3T3

Structure (SMILES)	IC50 [1]	other results
CC[C@H](C)[C@H](NC(=O)[C@H](CC(=O)O)NC(=O)[C@H](Cc1c[nH]c2ccccc12)NC(=O)[C@@H](Cc1ccccc1)NC(C)=O)C(=O)N[C@H](C(=O)N[C@@H](Cc1c[nH]c2ccccc12)C(=O)O)[C@@H](C)CC	79 nM	–
CC[C@H](C)[C@@H](NC(=O)[C@@H](CC(=O)O)NC(=O)[C@H]1CCCN1C(=O)[C@@H](Cc1ccccc1)NC(C)=O)C(=O)N[C@@H](C(=O)N[C@H](Cc1c[nH]c2ccccc12)C(=O)O)[C@@H](C)CC	–	IC50 [2]: 15 nM; IC50 ([1]; nih3t3): 45 nM
CC[C@H](C)[C@H](NC(=O)[C@H](CCc1ccccc1)NC(=O)[C@H](CC(=O)O)NC(=O)[C@H](CCCN)NC(=O)[C@@H](Cc1ccccc1)NC(C)=O)C(=O)N[C@@H](Cc1c[nH]c2ccccc12)C(=O)O	114 nM	–
CC[C@H](C)[C@H](NC(=O)[C@H](CC(=O)O)NC(=O)[C@H](Cc1ccccc1)NC(=O)[C@@H](Cc1ccccc1)NC(C)=O)C(=O)N[C@H](C(=O)N[C@@H](Cc1c[nH]c2ccccc12)C(=O)O)[C@@H](C)CC (HELM PEPTIDE1{[ac].[dF].F.D.I.I.W}$$$$V2.0)	270 nM	–
CC[C@H](C)[C@H](NC(=O)[C@H](CC(=O)O)NC(=O)[C@H](CCCN)NC(=O)[C@@H](Cc1ccccc1)NC(C)=O)C(=O)N[C@H](C(=O)N[C@@H](Cc1c[nH]c2ccccc12)C(=O)O)[C@@H](C)CC (HELM PEPTIDE1{[ac].[dF].[Orn].D.I.I.W}$$$$V2.0)	–	IC50 [3]: 230 nM
CC[C@H](C)[C@H](NC(=O)[C@H](CC(=O)O)NC(=O)[C@@H](Cc1ccccc1)NC(=O)[C@@H](Cc1ccccc1)NC(C)=O)C(=O)N[C@H](C(=O)N[C@@H](Cc1c[nH]c2ccccc12)C(=O)O)[C@@H](C)CC (HELM PEPTIDE1{[ac].[dF].[dF].D.I.I.W}$$$$V2.0)	98 nM	–

More lines, main results first:

IC50 [1]	Structure (SMILES)	other results
77 nM	CC[C@H](C)[C@H](NC(=O)[C@H](CC(=O)O)NC(=O)[C@H](Cc1ccc(O)cc1)NC(=O)[C@@H](Cc1ccccc1)NC(C)=O)C(=O)N[C@H](C(=O)N[C@@H](Cc1c[nH]c2ccccc12)C(=O)O)[C@@H](C)CC	–
26 nM	CC[C@H](C)[C@H](NC(=O)[C@H](CC(=O)O)NC(=O)[C@H](CCCN)NC(=O)[C@@H](Cc1ccc(O)cc1)NC(C)=O)C(=O)N[C@H](C(=O)N[C@@H](Cc1c[nH]c2ccccc12)C(=O)O)[C@@H](C)CC	IC50 [2]: 400 nM
12 nM	CC[C@H](C)[C@H](NC(=O)[C@H](CC(=O)O)NC(=O)CN(Cc1ccccc1)C(=O)[C@@H](Cc1ccccc1)NC(C)=O)C(=O)N[C@H](C(=O)N[C@@H](Cc1c[nH]c2ccccc12)C(=O)O)[C@@H](C)CC	IC50 [2]: 30 nM
15 nM	CC[C@H](C)[C@H](NC(=O)[C@H](CC(=O)O)NC(=O)[C@H](CCCN)NC(=O)[C@@H](Cc1c[nH]c2ccccc12)NC(C)=O)C(=O)N[C@H](C(=O)N[C@@H](Cc1c[nH]c2ccccc12)C(=O)O)[C@@H](C)CC	–
75 nM	CC[C@H](C)[C@H](NC(=O)[C@H](CC(=O)O)NC(=O)[C@H](CC(N)=O)NC(=O)[C@@H](Cc1ccccc1)NC(C)=O)C(=O)N[C@H](C(=O)N[C@@H](Cc1c[nH]c2ccccc12)C(=O)O)[C@@H](C)CC	–
70 nM	CC[C@H](C)[C@H](NC(=O)[C@H](CC(=O)O)NC(=O)[C@H](CCc1ccccc1)NC(=O)[C@@H](Cc1ccccc1)NC(C)=O)C(=O)N[C@H](C(=O)N[C@@H](Cc1c[nH]c2ccccc12)C(=O)O)[C@@H](C)CC	–
57 nM	CC[C@H](C)[C@H](NC(=O)[C@H](CC(=O)O)NC(=O)[C@H](C)NC(=O)[C@@H](Cc1ccccc1)NC(C)=O)C(=O)N[C@H](C(=O)N[C@@H](Cc1c[nH]c2ccccc12)C(=O)O)[C@@H](C)CC (HELM PEPTIDE1{[ac].[dF].A.D.I.I.W}$$$$V2.0)	–
